Experimental data taken from patent US8450245B2, “Heterocyclic alkanol derivatives” (Bayer Intellectual Property GmbH, priority 2010, dated 2013).

Tests used:
[1] = logP by HPLC on reversed-phase columns (C 18), EEC Directive 79/831 Annex V.A8; format: physicochemical; details: reversed-phase HPLC column (C 18); method [a]: LC-MS, acidic range, pH 2.7, 0.1% aqueous formic acid and acetonitrile, linear gradient 10% to 95% acetonitrile
Description: The logP values were measured in accordance with EEC Directive 79/831 Annex V.A8 by HPLC (High Performance Liquid Chromatography) using reversed-phase columns (C 18) by the following methods: [a] The LC-MS determination in the acidic range is effected at pH 2.7 with 0.1% aqueous formic acid and acetonitile (contains 0.1% formic acid) as eluents; linear gradient from 10% acetonitrile to 95% acetonitrile.

[2] = test system: Sphaerotheca fisliginea; assay: Sphaerotheca test (cucumber)/protective; format: in vivo; details: young cucumber plants sprayed at 500 ppm, inoculated one day after treatment, evaluation 7 days after inoculation; 100% = no infection
Description: Solvent: 49 parts by weight of N,N-dimethylformamide
Emulsifier: 1 part by weight of alkylaryl polyglycol ether
To produce an appropriate active ingredient formulation, 1 part by weight of active ingredient is mixed with the specified amounts of solvent and emulsifier, and the concentrate is diluted with water to the desired concentration. To test for protective activity, young cucumber plants are sprayed with the formulation of active ingredient at the stated application rate. One day after the treatment, the plants are inoculated with a spore suspension of Sphaerotheca fisliginea. The plants are then placed in a greenhouse at 70% relative air humidity and a temperature of 23° C. Evaluation follows 7 days after the inoculation. 0% means an efficacy which corresponds to that of the control, whereas an efficacy of 100% means that no infection is observed. In this test, the following inventive compounds, at an active ingredient concentration of 500 ppm, show an efficacy of 70% or more.

[3] = test system: Alternaria solani; assay: Alternaria test (tomato)/protective; format: in vivo; details: young tomato plants sprayed at 500 ppm, inoculated one day after treatment, evaluation 7 days after inoculation; 100% = no infection
Description: Solvent: 49 parts by weight of N,N-dimethylformamide Emulsifier: 1 part by weight of alkylaryl polyglycol ether To produce an appropriate active ingredient formulation, 1 part by weight of active ingredient is mixed with the specified amounts of solvent and emulsifier, and the concentrate is diluted with water to the desired concentration. To test for protective activity, young tomato plants are sprayed with the active ingredient formulation at the stated application rate. One day after the treatment, the plants are inoculated with a spore suspension of Alternaria solani and are then left at 100% relative humidity and 22° C. for 24 h. The plants are then left at 96% relative air humidity and a temperature of 20° C. Evaluation follows 7 days after the inoculation. 0% means an efficacy which corresponds to that of the control, whereas an efficacy of 100% means that no infection is observed. In this test, the following inventive compounds, at an active ingredient concentration of 500 ppm, show an efficacy of 70% or more.

Question: Which results are given for `CC(C)(C)C(O)(COc1ccc(I)c(F)c1F)c1cncs1` (stereo not drawn) [Compound 1]?
Answer: chromatographic logP [1]: 3.76; Efficacy (%) [2]: 94%; Efficacy (%) [3]: 100%
